The assay has as its target Mitogen-activated protein kinase 1 (Homo sapiens, UniProt P28482). Nature of the assay: Assay 1.

Results on 69 compounds are retold here after BindingDB's records for aid1799744 (Csar, 2012).

“And” between values parts separate entries of the source, which are not always exact repeats. Equal values may be shown once.

Mitogen-activated protein kinase 1, sequence (P28482 whole entry): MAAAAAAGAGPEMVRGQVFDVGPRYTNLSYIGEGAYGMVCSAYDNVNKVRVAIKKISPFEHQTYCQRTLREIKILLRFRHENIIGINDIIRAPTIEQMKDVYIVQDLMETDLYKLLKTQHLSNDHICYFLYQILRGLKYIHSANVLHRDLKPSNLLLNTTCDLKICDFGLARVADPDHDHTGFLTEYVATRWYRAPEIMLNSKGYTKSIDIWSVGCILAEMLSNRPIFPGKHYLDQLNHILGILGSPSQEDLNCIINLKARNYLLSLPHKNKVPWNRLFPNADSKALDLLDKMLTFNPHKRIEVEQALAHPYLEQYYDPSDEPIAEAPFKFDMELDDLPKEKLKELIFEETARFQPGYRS

As usually defined, the Ki is the equilibrium dissociation constant of an inhibitor or competing ligand from its target. Low readings indicate tighter binding, high ones weaker binding. Take `Cc1cnc(Nc2cccc(O)c2C)nc1-c1c[nH]c(C(=O)N[C@H](CO)c2ccccc2)c1` [erk000527]: the Ki was 3 nM.

Consider `CCN1CCC[C@H]1CNc1ncc(C)c(-c2c[nH]c(C(=O)N[C@H](CO)c3ccccc3)c2)n1` [erk000530], for which the Ki is 110 nM and 60 nM.

Compound `COc1cccc(Nc2ncc(C)c(-c3c[nH]c(C(=O)N[C@H](CO)c4ccccc4)c3)n2)c1C` [erk000531] yielded a Ki of 79 nM. That is a double-digit nanomolar value.

In turn, `Cc1cccc([C@@H](CO)NC(=O)c2cc(-c3nc(Nc4ccccc4N(C)C)ncc3C)c[nH]2)c1` [erk000532] came in with a Ki of 50 nM. Against the preceding compound, the Ki is about 1.6-fold lower.

In the case of `Cc1cnc(Nc2ccccc2C#N)nc1-c1c[nH]c(C(=O)N[C@H](CO)c2ccccc2)c1` [erk000533], the affinity, expressed as Ki, was 2000 nM.

`Cc1cnc(NC2CCCCC2)nc1-c1c[nH]c(C(=O)N[C@H](CO)c2ccccc2)c1` [erk000534] returned a Ki of 2 nM.

The compound `COc1cccc(Nc2ncc(C)c(-c3c[nH]c(C(=O)N[C@H](CO)c4cccc(C)c4)c3)n2)c1C` [erk000535] gave a Ki of 200 nM.

In the case of `Cc1cnc(NC(C)C)nc1-c1c[nH]c(C(=O)N[C@H](CO)c2cccc(F)c2)c1` [erk000536], affinity was put at a Ki of 15 nM. This Ki lies about 13-fold lower than the previous one.

Compound `Cc1cnc(Nc2cccc(F)c2C)nc1-c1c[nH]c(C(=O)N[C@H](CO)c2ccccc2)c1` [erk000538] had a Ki of 2 nM.

Compound `Cc1cnc(Nc2cccc(C)c2C)nc1-c1c[nH]c(C(=O)N[C@H](CO)c2cccc(F)c2)c1` [erk000539] registered a Ki of 4 nM.

`Cc1cnc(NC2CCC2)nc1-c1c[nH]c(C(=O)N[C@H](CO)c2ccccc2)c1` [erk000540] registered an inhibition constant Ki of 6 nM.

`Cc1cnc(Nc2cccc(CO)c2C)nc1-c1c[nH]c(C(=O)N[C@H](CO)c2ccccc2)c1` [erk000541] returned a Ki of 1 nM.

As for `Cc1cnc(NC2CC2)nc1-c1c[nH]c(C(=O)N[C@H](CO)c2cccc(F)c2)c1` [erk000542], the affinity, expressed as Ki, was 11 nM.

Consider `Nc1nccc(-c2c[nH]c(C(=O)N(CCO)Cc3ccccc3)c2)n1` [erk000543], for which the Ki worked out at 2000 nM. This Ki is about 180-fold higher than that of the compound before.

`CCSc1ncc(C)c(-c2c[nH]c(C(=O)N[C@H](CO)c3ccccc3)c2)n1` [erk000544]: the inhibition constant Ki came to 65 nM. Compared with the last compound, the Ki is about 31-fold lower.

Take `CCC[C@H](C)Nc1ncc(C)c(-c2c[nH]c(C(=O)N[C@H](CO)c3ccccc3)c2)n1` [erk000546]: affinity was put at a Ki of 18 nM.

In turn, `CCC(CC)Nc1ncc(C)c(-c2c[nH]c(C(=O)N[C@H](CO)c3ccccc3)c2)n1` [erk000547] registered a Ki of 6 nM.

Consider `COC[C@H](C)Nc1ncc(C)c(-c2c[nH]c(C(=O)N[C@H](CO)c3ccccc3)c2)n1` [erk000548], for which the Ki worked out at 24 nM. Compared with the last compound, the Ki is about 4-fold higher.

For `CC[C@@H](COC)Nc1ncc(C)c(-c2c[nH]c(C(=O)N[C@H](CO)c3ccccc3)c2)n1` [erk000549], the affinity corresponds to a Ki of 27 nM.

In the case of `CCC[C@@H](CO)Nc1ncc(C)c(-c2c[nH]c(C(=O)N[C@H](CO)c3ccccc3)c2)n1` [erk000551], the Ki is 20 nM.

`CSCC[C@@H](CO)Nc1ncc(C)c(-c2c[nH]c(C(=O)N[C@H](CO)c3ccccc3)c2)n1` [erk000552] gave a Ki of 5 nM.

With `Cc1cnc(NC2CCC(C)CC2)nc1-c1c[nH]c(C(=O)N[C@H](CO)c2ccccc2)c1` (some centres undefined) [erk000553], the affinity, expressed as Ki, was 6 nM. This Ki and that of the compound before are within 1.5-fold of each other.

In turn, `Cc1cnc(Nc2cccc3c2CCC3)nc1-c1c[nH]c(C(=O)N[C@H](CO)c2ccccc2)c1` [erk000556] yielded a Ki of 3 nM.

Compound `CC[C@@H](COC)Nc1ncc(C)c(-c2c[nH]c(C(=O)N[C@H](CO)c3cccc(Cl)c3)c2)n1` [erk000557] yielded a Ki of 4 nM. The Ki values of the last two compounds are within 1.5-fold of each other.

`Cc1cnc(NN2CCOCC2)nc1-c1c[nH]c(C(=O)N[C@H](CO)c2cccc(Cl)c2)c1` [erk000558]: the Ki worked out at 2 nM. Compared with the last compound, the Ki is about 2-fold lower.

`Cc1cnc(Nc2cc(Cl)cc(Cl)c2)nc1-c1c[nH]c(C(=O)N[C@H](CO)c2ccccc2)c1` [erk000559] returned a Ki of 3 nM. Against the preceding compound, the Ki is about 1.5-fold higher.

In the case of `CC(=O)NCCNc1ncc(C)c(-c2c[nH]c(C(=O)N[C@H](CO)c3ccccc3)c2)n1` [erk000560], the affinity corresponds to a Ki of 58 nM. This Ki is about 19-fold higher than that of the compound before.

For the compound `Cc1cnc(Nc2c(F)cccc2F)nc1-c1c[nH]c(C(=O)N[C@H](CO)c2ccccc2)c1` [erk000561], the affinity corresponds to a Ki of 4 nM.

`Cc1cnc(Nc2cccc(Br)c2C)nc1-c1c[nH]c(C(=O)N[C@H](CO)c2ccccc2)c1` [erk000562] came in with a Ki of 27 nM.

As to `Cc1ccc(Nc2ncc(C)c(-c3c[nH]c(C(=O)N[C@H](CO)c4ccccc4)c3)n2)cc1Br` [erk000563], the Ki came to 3 nM. This Ki is about 9-fold lower than that of the compound before.

With `Cc1cnc(Nc2c(Cl)cccc2Cl)nc1-c1c[nH]c(C(=O)N[C@H](CO)c2ccccc2)c1` [erk000564], the Ki was determined as 151 nM.

In the case of `Cc1cnc(Nc2cccc([N+](=O)[O-])c2)nc1-c1c[nH]c(C(=O)N[C@H](CO)c2ccccc2)c1` [erk000565], the Ki was determined as 3 nM.

In turn, `Cc1cc(C)cc(Nc2ncc(C)c(-c3c[nH]c(C(=O)N[C@H](CO)c4ccccc4)c3)n2)c1` [erk000566] showed a Ki of 3 nM.

With `Cc1cnc(NCCN2CCCC2)nc1-c1c[nH]c(C(=O)N[C@H](CO)c2ccccc2)c1` [erk000568], the Ki was found to be 224 nM.

Compound `Cc1cnc(Nn2cccc2)nc1-c1c[nH]c(C(=O)N[C@H](CO)c2ccccc2)c1` [erk000573] gave a Ki of 9 nM.

The compound `Cc1cnc(Nc2c(C)cccc2Cl)nc1-c1c[nH]c(C(=O)N[C@H](CO)c2ccccc2)c1` [erk000575] had a Ki of 110 nM.

Regarding `Cc1cnc(NCCc2ccccc2)nc1-c1c[nH]c(C(=O)N[C@H](CO)c2ccccc2)c1` [erk000578], the Ki was determined as 7 nM.

`Cc1cnc(NCc2ccncc2)nc1-c1c[nH]c(C(=O)N[C@H](CO)c2ccccc2)c1` [erk000579] returned a Ki of 776 nM. Against the preceding compound, the Ki is about 110-fold higher.

`Cc1cnc(NCc2ccccn2)nc1-c1c[nH]c(C(=O)N[C@H](CO)c2ccccc2)c1` [erk000580] yielded a Ki of 1120 nM. The Ki values of the last two compounds are within 1.5-fold of each other.

Compound `CCONc1ncc(C)c(-c2c[nH]c(C(=O)N[C@H](CO)c3cccc(Cl)c3)c2)n1` [erk000582] registered a Ki of 6 nM.

`Cc1cnc(NC2CCOCC2)nc1-c1c[nH]c(C(=O)N[C@H](CO)c2cccc(Cl)c2)c1` [erk000584]: the Ki came to 8 nM. The Ki values of the last two compounds are within 1.5-fold of each other.

With `Cc1ccc(Nc2ncc(C)c(-c3c[nH]c(C(=O)N[C@H](CO)c4cccc(Cl)c4)c3)n2)cc1` [erk000585], the affinity corresponds to a Ki of 7 nM.

Consider `Cc1ccc(Nc2ncc(C)c(-c3c[nH]c(C(=O)N[C@H](CO)c4cccc(C)c4)c3)n2)cc1` [erk000586], for which affinity was put at a Ki of 2 nM. This Ki lies about 3.5-fold lower than the previous one.

`Cc1cnc(NN2CCCCC2)nc1-c1c[nH]c(C(=O)N[C@H](CO)c2ccccc2)c1` [erk000587] showed a Ki of 1 nM. This Ki is about 2-fold lower than that of the compound before.

`Cc1ccc(-c2csc(Nc3ncc(C)c(-c4c[nH]c(C(=O)N[C@H](CO)c5ccccc5)c4)n3)n2)cc1` [erk000588]: the inhibition constant (Ki) came to 10 nM.

Compound `Cc1cnc(Nc2cccc3c2OC(F)(F)O3)nc1-c1c[nH]c(C(=O)N[C@H](CO)c2ccccc2)c1` [erk000591] displayed a Ki of 8 nM.

`Cc1cnc(NC2Cc3ccccc3C2)nc1-c1c[nH]c(C(=O)N[C@H](CO)c2cccc(Cl)c2)c1` [erk000592] registered a Ki of 16 nM.

`Cc1cnc(Nc2c(F)cccc2F)nc1-c1c[nH]c(C(=O)N[C@H](CO)c2cccc(Cl)c2)c1` [erk000593] gave a Ki of 14 nM. This Ki and that of the compound before are within 1.5-fold of each other.

In the case of `N#Cc1c(NCCN2CCCCC2)sc(-c2ccnc(Nc3cccc(O)c3)n2)c1-c1cccc(Cl)c1` [erk000594], the Ki came to 27 nM.

Compound `Cc1cnc(NOCC(C)C)nc1-c1c[nH]c(C(=O)N[C@H](CO)c2cccc(Cl)c2)c1` [erk000597] displayed a Ki of 14 nM. Against the preceding compound, the Ki is about 1.9-fold lower.

On to `CCONc1ncc(C)c(-c2c[nH]c(C(=O)N[C@H](CO)c3cccc(C)c3)c2)n1` [erk000599], for which the Ki worked out at 3 nM.

The compound `Cc1cccc([C@@H](CO)NC(=O)c2cc(-c3nc(NOCC(C)C)ncc3C)c[nH]2)c1` [erk000600] showed a Ki of 10 nM.

Regarding `Cc1cccc([C@@H](CO)NC(=O)c2cc(-c3nc(Nc4cccc(F)c4C)ncc3C)c[nH]2)c1` [erk000601], the affinity, expressed as Ki, was 8 nM.

With `Cc1cccc([C@@H](CO)NC(=O)c2cc(-c3nc(NC4CCOCC4)ncc3C)c[nH]2)c1` [erk000602], the Ki stood at 3 nM.

`Cc1cccc([C@@H](CO)NC(=O)c2cc(-c3nc(Nc4ccccn4)ncc3C)c[nH]2)c1` [erk000603]: affinity was put at a Ki of 9 nM.

`CC[C@@H](C)Nc1ncc(C)c(-c2c[nH]c(C(=O)N[C@H](CO)c3cccc(C)c3)c2)n1` [erk000604] returned a Ki of 76 nM.

`Cc1cnc(N[C@@H](C)C(C)C)nc1-c1c[nH]c(C(=O)N[C@H](CO)c2cccc(Cl)c2)c1` [erk000605] showed a Ki of 6 nM.

`Cc1cnc(N[C@@H]2CCC[C@H](C)[C@@H]2C)nc1-c1c[nH]c(C(=O)N[C@H](CO)c2cccc(Cl)c2)c1` [erk000606] registered a Ki of 13 nM. This Ki is about 2.2-fold higher than that of the compound before.

Compound `Cc1cnc(N[C@H](C)C(C)C)nc1-c1c[nH]c(C(=O)N[C@H](CO)c2cccc(Cl)c2)c1` [erk000607] showed a Ki of 1 nM.

`Cc1cnc(N[C@H]2CCC[C@H]2OCc2ccccc2)nc1-c1c[nH]c(C(=O)N[C@H](CO)c2cccc(Cl)c2)c1` [erk000608] gave a Ki of 17 nM.

`Cc1cnc(N[C@H]2CCC[C@@H]2OCc2ccccc2)nc1-c1c[nH]c(C(=O)N[C@H](CO)c2cccc(Cl)c2)c1` [erk000609] showed a Ki of 46 nM.

Consider `Cc1cccc([C@@H](CO)NC(=O)c2cc(-c3nc(N[C@@H]4CCOC4)ncc3C)c[nH]2)c1` [erk000610], for which the Ki stood at 10 nM.

Consider `Cc1cnc(Nc2ccccn2)nc1-c1c[nH]c(C(=O)N[C@H](CO)c2cccc(Cl)c2)c1` [erk000611], for which the affinity corresponds to a Ki of 71 nM.

`Cc1cnc(N[C@H]2CCC[C@H]2O)nc1-c1c[nH]c(C(=O)N[C@H](CO)c2cccc(Cl)c2)c1` [erk000612] displayed a Ki of 7 nM.

Compound `Cc1cnc(N[C@H]2CCC[C@@H]2O)nc1-c1c[nH]c(C(=O)N[C@H](CO)c2cccc(Cl)c2)c1` [erk000613] returned a Ki of 35 nM.

Compound `CCCONc1ncc(C)c(-c2c[nH]c(C(=O)N[C@H](CO)c3cccc(C)c3)c2)n1` [erk000614] gave a Ki of 5 nM. Against the preceding compound, the Ki is about 7-fold lower.

For the compound `CCCONc1ncc(C)c(-c2c[nH]c(C(=O)N[C@H](CO)c3cccc(Cl)c3)c2)n1` [erk000615], the affinity, expressed as Ki, was 4 nM.

`COc1cccc(Nc2ncc(C)c(-c3c[nH]c(C(=O)N[C@H](CO)c4ccccc4)c3)n2)c1OC` [erk000616] returned a Ki of 2 nM.

Compound `Cc1cccc(Nc2ncc(C)c(-c3c[nH]c(C(=O)N[C@H](CO)c4cccc(Cl)c4)c3)n2)n1` [erk000619] had a Ki of 2 nM. In other words, the single-digit nanomolar range.
